Assay results as given in patent US20230226199A1, “DENDRIMER COMPOSITIONS AND METHODS FOR DRUG DELIVERY” (Ashvattha Therapeutics, Inc., priority 2019, published 2023).

Target: JAK1 (Homo sapiens, UniProt P23458)
Assay: JAK1 binding affinity
Excerpt: An exemplary conjugation of JAK1 inhibitor Target-007 to a dendrimer is shown below (Structure XXXIII). JAK1 binding affinity of Target-007 is about […] and the binding affinity of dendrimer conjugated Target-007 is about […].

Sequence of JAK1 (P23458 whole entry, species assumed): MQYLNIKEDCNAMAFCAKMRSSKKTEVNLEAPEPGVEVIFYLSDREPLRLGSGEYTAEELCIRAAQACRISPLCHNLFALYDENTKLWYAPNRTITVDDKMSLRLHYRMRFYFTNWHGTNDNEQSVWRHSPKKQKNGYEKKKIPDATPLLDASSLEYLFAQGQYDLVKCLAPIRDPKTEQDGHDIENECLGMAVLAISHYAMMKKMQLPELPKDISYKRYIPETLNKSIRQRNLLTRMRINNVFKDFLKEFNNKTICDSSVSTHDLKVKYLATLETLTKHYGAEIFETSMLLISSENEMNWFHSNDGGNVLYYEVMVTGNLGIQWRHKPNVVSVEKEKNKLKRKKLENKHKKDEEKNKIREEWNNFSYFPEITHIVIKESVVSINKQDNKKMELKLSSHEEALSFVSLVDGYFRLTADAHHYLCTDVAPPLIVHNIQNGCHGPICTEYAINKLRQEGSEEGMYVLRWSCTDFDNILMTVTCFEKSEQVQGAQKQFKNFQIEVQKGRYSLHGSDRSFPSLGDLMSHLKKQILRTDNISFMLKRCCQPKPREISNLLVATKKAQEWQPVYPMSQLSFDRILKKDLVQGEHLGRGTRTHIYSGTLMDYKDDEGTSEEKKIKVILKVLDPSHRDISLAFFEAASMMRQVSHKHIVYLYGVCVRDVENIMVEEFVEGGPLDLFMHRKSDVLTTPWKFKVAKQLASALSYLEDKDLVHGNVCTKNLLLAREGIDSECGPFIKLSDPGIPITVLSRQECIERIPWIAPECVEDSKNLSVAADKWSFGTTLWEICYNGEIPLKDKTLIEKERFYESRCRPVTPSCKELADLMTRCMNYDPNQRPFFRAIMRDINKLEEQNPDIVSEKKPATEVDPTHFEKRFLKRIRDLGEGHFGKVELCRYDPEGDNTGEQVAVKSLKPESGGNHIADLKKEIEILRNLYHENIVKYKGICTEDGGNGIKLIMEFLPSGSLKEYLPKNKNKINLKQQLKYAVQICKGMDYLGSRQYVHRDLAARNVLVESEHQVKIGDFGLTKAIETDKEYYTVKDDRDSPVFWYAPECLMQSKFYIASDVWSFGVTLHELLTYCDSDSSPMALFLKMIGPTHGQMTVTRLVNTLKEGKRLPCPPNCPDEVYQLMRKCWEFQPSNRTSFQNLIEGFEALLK

Kd: ~1 nM
Structure (SMILES): COc1cc(-c2nc3c(NCC4CCNCC4)c(Cl)cnc3[nH]2)c(F)cc1OCCOCCOCCOCCN=[N+]=[N-] [Target-007]
